Reference: paper PMC10304880, “Novel Tryptanthrin Derivatives with Selectivity as c–Jun N–Terminal Kinase (JNK) 3 Inhibitors” (Molecules, 2023)
Read-outs that look alike come from different tables or passages of the source. One block for each molecule: values may come before it.

Columns and labels:
JNK2 [1] = biological target: T1, JNK2 (Homo sapiens, UniProt P45984); conditions: Figure 1; ref [49],[50],[51]; cited from earlier work
T1 construct: purchased Eurofins Pharma Discovery (KINOMEscan service)
T1 sequence (P45984 whole entry): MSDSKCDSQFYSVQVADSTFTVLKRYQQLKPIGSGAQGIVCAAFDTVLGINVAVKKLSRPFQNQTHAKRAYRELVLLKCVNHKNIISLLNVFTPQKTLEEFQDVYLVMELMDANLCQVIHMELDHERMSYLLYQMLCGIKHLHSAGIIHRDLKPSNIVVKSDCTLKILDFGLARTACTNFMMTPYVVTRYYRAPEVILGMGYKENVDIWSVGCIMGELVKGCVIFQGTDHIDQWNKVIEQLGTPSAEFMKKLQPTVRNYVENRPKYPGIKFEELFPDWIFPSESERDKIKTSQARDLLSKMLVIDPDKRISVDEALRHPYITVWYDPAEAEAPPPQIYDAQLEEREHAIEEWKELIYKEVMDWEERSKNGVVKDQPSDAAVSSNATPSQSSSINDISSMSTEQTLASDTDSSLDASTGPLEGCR

JNK1 [2] = biological target: T2, JNK1 (Homo sapiens, UniProt P45983); conditions: Figure 1; ref [49],[50],[51]; cited from earlier work
T2 construct: purchased Eurofins Pharma Discovery (KINOMEscan service)
T2 sequence (P45983 whole entry): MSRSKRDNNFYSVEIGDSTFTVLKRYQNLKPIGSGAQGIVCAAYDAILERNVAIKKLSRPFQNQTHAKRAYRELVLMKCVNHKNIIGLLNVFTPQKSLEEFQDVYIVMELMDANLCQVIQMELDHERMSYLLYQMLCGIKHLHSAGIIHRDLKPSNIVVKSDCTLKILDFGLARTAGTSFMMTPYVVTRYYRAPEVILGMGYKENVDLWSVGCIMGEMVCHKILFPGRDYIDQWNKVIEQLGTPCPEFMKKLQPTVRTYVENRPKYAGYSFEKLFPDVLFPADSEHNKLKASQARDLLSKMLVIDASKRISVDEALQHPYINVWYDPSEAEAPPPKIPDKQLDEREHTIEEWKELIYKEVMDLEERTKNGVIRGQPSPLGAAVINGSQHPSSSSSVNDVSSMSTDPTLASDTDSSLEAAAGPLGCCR

JNK3 [3] = biological target: T3, JNK3 (Homo sapiens, UniProt P53779); conditions: cited from earlier work; for Kd: Figure 1, ref [49],[50],[51]
T3 construct: purchased Eurofins Pharma Discovery (KINOMEscan service)
T3 sequence (P53779 whole entry): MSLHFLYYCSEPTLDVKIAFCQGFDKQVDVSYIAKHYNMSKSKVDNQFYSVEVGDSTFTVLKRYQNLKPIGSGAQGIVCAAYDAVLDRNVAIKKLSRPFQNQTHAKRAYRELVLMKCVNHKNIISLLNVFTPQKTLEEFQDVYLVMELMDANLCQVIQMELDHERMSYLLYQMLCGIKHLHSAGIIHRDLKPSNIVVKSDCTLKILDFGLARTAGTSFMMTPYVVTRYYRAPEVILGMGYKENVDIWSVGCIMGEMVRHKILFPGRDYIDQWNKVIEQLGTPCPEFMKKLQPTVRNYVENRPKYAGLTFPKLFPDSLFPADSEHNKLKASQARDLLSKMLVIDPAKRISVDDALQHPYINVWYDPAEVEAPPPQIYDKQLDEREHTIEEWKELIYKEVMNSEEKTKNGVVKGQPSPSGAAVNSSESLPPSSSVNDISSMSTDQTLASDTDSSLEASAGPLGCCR

[4] = test system: IL-6 production in MonoMac-6 cells; assay: LPS-induced IL-6 production in MonoMac-6 cells (ELISA); type: cell-based, human; conditions: 250 ng/mL LPS, 24 h
Method: All cells were cultured at 37 °C in a humidified atmosphere containing 5% CO2. Human THP-1Blue monocytic cells obtained from InvivoGen (San Diego, CA, USA) were cultured in RPMI 1640 medium (Mediatech Inc., Herndon, VA, USA) supplemented with 10% (v/v) fetal bovine serum (FBS), 4.5 g/L glucose, 100 μg/mL streptomycin, 100 U/mL penicillin, 100 μg/mL phleomycin (Zeocin), and 10 μg/mL blasticidin S. Human monocyte-macrophage MonoMac-6 cells (Deutsche Sammlung von Mikroorganismen und Zellkulturen GmbH, Braunschweig, Germany) were grown in RPMI 1640 medium supplemented with 10% (v/v) FBS, 10 μg/mL bovine insulin, 100 μg/mL streptomycin, and 100 U/mL penicillin.
(§1) Panel (A) THP-1Blue cells were pretreated with the indicated compounds or DMSO for 30 min, followed by addition of 250 ng/mL LPS or buffer for 24 h. […] Panel (B) MonoMac-6 cells were pretreated with the indicated compounds or DMSO for 30 min, followed by addition of 250 ng/mL LPS or buffer for 24 h. Production of IL-6 in the supernatants was evaluated with ELISA. The data in each panel are presented as the mean ± S.D. of triplicate samples from one experiment that is representative of three independent experiments.

JNK1 [5] = biological target: T2, JNK1; assay: KINOMEscan JNK1 binding (Kd); conditions: 12-point series, max 33 μM, duplicate
Method: (§2) All compounds were evaluated for their ability to bind to JNK1-3 using the KINOMEscan platform.
(§3) Compounds were submitted for dissociation constant (Kd) determination using KINOMEscan (Eurofins Pharma Discovery, San Diego, CA, USA), as described previously. […] Primary screening at fixed concentrations of compounds was performed in duplicate. To determine dissociation constant Kd, a 12-point half-log dilution series (a maximum concentration of 33 μM) was used.

[6] = CellTiter-Glo cytotoxicity in THP-1Blue cells; type: cell-based; conditions: human, 24 h incubation
Method: (§4) Prior to evaluation of the compounds in cell-based assays, we measured their cytotoxicity in human monocytic THP-1Blue and MonoMac-6 cells during a 24 h incubation. […] Thus, these compounds were all excluded from subsequent testing in these cell lines.
(§5) Cytotoxicity was analyzed with a CellTiter-Glo Luminescent Cell Viability Assay Kit from Promega (Madison, WI, USA), according to the manufacturer’s protocol. Cells were treated with the compound under investigation and cultivated for 24 h. After treatment, the cells were allowed to equilibrate to room temperature for 30 min, substrate was added, and the luminescence measured using a Fluoroscan Ascent FL (Thermo Fisher Scientific, Waltham, MA, USA). The cell IC50 values were calculated by plotting the percentage inhibition against the logarithm of inhibitor concentration (at least five points).

[7] = CellTiter-Glo cytotoxicity in MonoMac-6 cells; type: cell-based; conditions: human, 24 h incubation
Method: as §4, §5

JNK3 [8] = biological target: T3, JNK3; assay: KINOMEscan JNK3 binding (Kd)
Method: as §2, §3

JNK2 [9] = biological target: T1, JNK2; assay: KINOMEscan JNK2 binding (Kd); conditions: 12-point series, max 33 μM, duplicate
Method: as §2, §3

[10] = test system: c-Jun phosphorylation in MonoMac-6 cells; assay: LPS-induced c-Jun (Ser63) phosphorylation in MonoMac-6 cells (sandwich ELISA); type: cell-based, human; conditions: 30 min pretreatment, LPS 500 ng/mL
Method: After 30 min pretreatment with the compounds, the cells were stimulated with LPS (500 ng/mL), and the level of phospho-c-Jun (S63) was determined by a sandwich ELISA.
MonoMac-6 cell lysates were prepared using Cell Lysis Buffer (Cell Signaling Technology, Danvers, MA, USA). The phospho-c-Jun content was measured with ELISA using the PathScan Phospho-c-Jun (Ser63) Sandwich ELISA Kit II (Cell Signaling Technology, USA), and the data are shown as the ratio of phospho-c-Jun vs. total c-Jun, which was measured using the FastScanTM Total c-Jun ELISA kit (Cell Signaling Technology).
Figure 3 Effect of the compounds 4d, 4e, 4h, and IQ-1S on LPS-induced c-Jun phosphorylation. Human MonoMac-6 monocytic cells were pretreated with the indicated concentrations of compounds or 0.5% DMSO for 30 min, followed by treatment with LPS (500 ng/mL) or control buffer for another 30 min. The cells were lysed, and the lysates were analyzed with ELISA for phospho-c-Jun (Ser63) and total c-Jun. The data are represented as the ratio of phospho-c-Jun to total c-Jun. The data are presented as the mean ± S.D. of triplicate samples from one experiment that is representative of three independent experiments. * Significant differences (p < 0.05) with LPS control.

[11] = test system: NF-κB/AP-1 transcriptional activity in THP-1Blue cells; assay: LPS-induced NF-κB/AP-1 alkaline phosphatase reporter assay in THP-1Blue cells; type: cell-based; conditions: Homo sapiens, 30 min pretreatment, 250 ng/mL LPS, 24 h; read-out: AP Production in THP–1Blue IC50
Method: Activation of AP-1/NF-κB was measured using an alkaline phosphatase reporter gene assay in THP1-Blue cells. Human monocytic THP-1Blue cells were stably transfected with a secreted embryonic alkaline phosphatase gene that was under the control of a promoter inducible by AP-1/NF-κB.
as §1, with “Figure 2 Effect of compounds 4d and 4e on NF-κB/AP-1 activity and IL-6 production. Panel (A)” for “Panel (A)”

SMILES: N#CCO/N=C1\c2ccccc2-n2c1nc1ccccc1c2=O [TRYP–1e]
Kd (JNK2 [1]): 17500 nM
Kd (JNK1 [2]): 19500 nM
Kd (JNK3 [3]): 1500 nM
selectivity for JNK3 binding versus JNK1/JNK2 (JNK3 [3]; ref [49]): ~ 10 fold

IC50 ([4]; 30 min pretreatment): 700 ± 100 nM
IC50 ([4]; Homo sapiens, MONO-MAC-6, 30 min pretreatment): < 1000 nM
Kd (JNK1 [5]): > 30000 nM
melting point: > 225 °C (dec.)
selectivity index (JNK3 versus JNK1 and JNK2) (JNK3 [8]): > 7
Kd (JNK3 [8]; KINOMEscan, 12-point series, max 33 μM, duplicate): 340 ± 30 nM
Selectivity Index JNK1/JNK3 (JNK3 [8]; ratio of Kd values): >100
Selectivity Index JNK2/JNK3 (JNK3 [8]; ratio of Kd values): >100
Kd (JNK2 [9]): > 30000 nM
IC50 [11]: 800 ± 300 nM
SMILES: COc1ccc2c(c1)C(=NO)c1nc3ccccc3c(=O)n1-2 [Compound 4d, 8-Methoxyindolo[2,1-b]quinazolin-6,12-dione Oxime]
IC50 at 24 h [6]: > 50000 nM
IC50 at 24 h [7]: > 50000 nM
LPS-induced c-Jun phosphorylation (phospho-c-Jun S63 / total c-Jun) [10]: dose-dependently inhibited

SMILES: O/N=C1\c2ccccc2-c2nc3ccc(Cl)cc3nc21 [IQ–6i]
Kd (JNK2 [1]): 21500 nM
Kd (JNK1 [2]): 1100 nM
Kd (JNK3 [3]): 710 nM

SMILES: O/N=C1\c2ccccc2-c2nc3cc(F)c(F)cc3nc21 [IQ–4f]
Kd (JNK2 [1]): > 30000 nM
Kd (JNK1 [2]): 170 nM
Kd (JNK3 [3]): 520 nM
